The target of assay [1] is T1, human EP2 receptor (Homo sapiens, UniProt P43116).
T1 construct: purchased Merck Millipore HTS185M
Description: Receptor binding test, [3H]PGE2 binding inhibition, EP2. The settings on record: [3H]PGE2 2.56 nmol/L, membrane fraction HTS185M, 25°C 60 minutes. How it is done:
(§1) In order to evaluate selectivity to each EP receptor subtype, [^3H]PGE2 binding-inhibition activities of test compounds for cell membranes on which human EP2, human EP3, and human EP4 receptors were stably expressed were measured.
(§2) As the membrane fractions of the prostaglandin E receptors EP2, EP3, and EP4, 10.0 μg protein/tube each of HTS185M, HTS092M, and HTS142M of Merck Millipore were used, respectively. Each membrane fraction was incubated with a reaction mixture (250 μL/tube) containing a test compound and [3H]PGE2 at 25° C. for 60 minutes. […] After the reaction, the membrane fraction was collected on filter paper by using a cell harvester, the filter paper was transferred to a measurement vial, and the measurement was performed on a liquid scintillation counter.
(§3) The nonspecific binding was determined as binding observed in the presence of excess amount (10 μM) of unlabeled PGE2. The measurement of the [3H]PGE2 binding-inhibiting activity of a test compound was performed by adding the test compound at various concentrations. The following buffers were used for the reaction.
Buffer for EP2: 50 mmol/L HEPES-NaOH (pH 7.4) containing 5 mmol/L MgCl2, 1 mmol/L CaCl2), and 0.2% BSA

Assay [2] concerns the target T2, human EP3 receptor (Homo sapiens, UniProt P43115).
T2 construct: purchased Merck Millipore HTS092M
T2 sequence (P43115 1-390): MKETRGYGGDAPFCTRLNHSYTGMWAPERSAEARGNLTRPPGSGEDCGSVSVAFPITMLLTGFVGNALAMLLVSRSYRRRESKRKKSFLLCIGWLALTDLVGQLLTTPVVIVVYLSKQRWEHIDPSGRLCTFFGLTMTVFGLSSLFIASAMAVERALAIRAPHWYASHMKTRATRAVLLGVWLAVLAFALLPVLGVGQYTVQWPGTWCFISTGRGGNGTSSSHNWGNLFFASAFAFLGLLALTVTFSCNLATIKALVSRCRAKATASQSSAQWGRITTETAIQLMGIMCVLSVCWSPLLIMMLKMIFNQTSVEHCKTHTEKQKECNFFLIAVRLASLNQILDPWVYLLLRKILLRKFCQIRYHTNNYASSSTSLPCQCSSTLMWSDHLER
Description: Receptor binding test, [3H]PGE2 binding inhibition, EP3. The following applies: [3H]PGE2 1.54 nmol/L, membrane fraction HTS092M, 25°C 60 minutes. Here is the method:
as §1, §2, §3
Buffer for EP3: 50 mmol/L Tris-HCl buffer containing 10 mmol/L MgCl2, and 1 mmol/L EDTA

The test system of assay [3] is rat femur. Nature of the assay: Neo-osteogenesis action in rat femur. The settings on record: female SD rats, one week after administration. In kind it is in vivo. How it is done:
Eight weeks old female SD rats (Charles River Japan) were fixed in the side lying position under triple anesthesia (medetomidine hydrochloride, midazolam, and butorphanol tartrate). After hair of the left femoral region was shaved with a hair clipper, and disinfection treatment was performed with 70% ethanol, an in situ-solidified gel solution of a test compound, specifically, a test compound dissolved in poly(lactic-co-glycolic acid) (RESOMER RG502H, produced by Evonik Industries)/poly(lactic-co-glycolic acid)-polyethylene glycol block copolymer (5050 DLG mPEG 5000, produced by Lakeshore Biomaterials)/N-methyl-2-pyrroridone (produced by Wako) (weight ratio 47%/3%/50%), was filled in a 1-mL syringe, a 21G injection needle was attached to the syringe, and the needle was transdermally stabbed from the quadriceps to the periosteum near the center of the femoral diaphyseal. Then, 100 μg as the amount of the test compound, or 50 μL as the administration volume of the solution was injected between the quadriceps and the periosteum, and the injection needle was drawn out. To the rats of the control group, the aforementioned in situ-solidified gel solution alone was administered. One week after the administration of the drug solution, the triple anesthesia was given to the animals, and they were fixed in the supine position, and euthanized by bleeding. […], circumferential tissues such as muscles were removed, the bone mineral content of the whole femur was measured by using a bone mineral analyzer DCS-600EX (produced by ALOKA), then it was divided into three portions along the long axis, and the bone mineral content of the center part (diaphysis) was evaluated. The test was performed with the groups each consisting of 6 animals.

Assay [4] deals with dog femur. Nature of the assay: Neo-osteogenesis action in dog femur. In kind it is in vivo. The following applies: beagle dogs, four weeks. How it is done:
In order to investigate an osteogenesis-promoting action of the compounds of the present invention, for influence of administration of microspheres containing a test compound in the vicinity of the femur of dog, osteogenesis-promoting action was evaluated by measuring new bone formed after the administration.
Nine to eleven months old female beagle dogs ([…] LABES) were anesthetized by administration of a 1:1 mixture of ketamine hydrochloride (Ketalar 500 mg, Daiichi Sankyo Propharma Co., Ltd.) and xylazine (Selactar 2% Injection, Bayer Yakuhin, Ltd.) at a dose of about 0.5 mL/kg, and isoflurane listed in Japanese Pharmacopoeia (Elucaine, Mylan Pharmaceutical) was used for maintenance anesthesia, which was administered with an inhaler IMPAC6 (VetEquip Inc.). After hair of the femoral region of the right hind leg was shaved, and disinfection treatment was performed, 350 μL of a microsphere suspension obtained by suspending microspheres (prepared according to the method of Preparation Example 1 or 2) containing a test compound (compound of Example 23) in a CMC solution was transdermally administered around the periosteum of the femoral diaphysis by using a 1-mL injection syringe and a 21G injection needle. The doses of the test compound were 0.01, 0.1, 1.0, 10, and 100 μg/site, and the aforementioned microspheres were used in an amount corresponding to each dose. As a control group, a drug liquid obtained by suspending the microspheres not containing the test compound in 350 μL of the CMC solution alone was administered. Four weeks after the administration of the drug liquid, the animals were euthanized by bleeding under pentobarbital sodium (Somnopentyl) anesthesia. The femurs of both sides were extracted, immersed in a 10% neutral buffered formalin solution, and stored. The bone mineral content of the femur was measured by using Discovery X-ray bone density analyzer (produced by Toyo Medic). The test was performed with the groups each consisting of 4 dogs

Assay [5] concerns the target human EP4 receptor (Homo sapiens, UniProt P35408). Description: Receptor binding test, [3H]PGE2 binding inhibition, EP4. On the set-up: purchased Merck Millipore HTS142M. The settings on record: [3H]PGE2 1.24 nmol/L, membrane fraction HTS142M, 25°C 60 minutes. How it is done: as §1, §2, §3
Buffer for EP4: 50 mmol/L HEPES-NaOH (pH7.4) containing 5 mmol/L MgCl2, 1 mmol/L CaCl2), and 0.2% BSA

The text below walks through data of patent US11667630B2, “Nitrogen-containing 6-membered cyclic compound” (Asahi Kasei Pharma Corporation, priority 2017, dated 2023).

As usually defined, the IC50 is the concentration needed to halve the response being measured.

T1 sequence (P43116 whole entry): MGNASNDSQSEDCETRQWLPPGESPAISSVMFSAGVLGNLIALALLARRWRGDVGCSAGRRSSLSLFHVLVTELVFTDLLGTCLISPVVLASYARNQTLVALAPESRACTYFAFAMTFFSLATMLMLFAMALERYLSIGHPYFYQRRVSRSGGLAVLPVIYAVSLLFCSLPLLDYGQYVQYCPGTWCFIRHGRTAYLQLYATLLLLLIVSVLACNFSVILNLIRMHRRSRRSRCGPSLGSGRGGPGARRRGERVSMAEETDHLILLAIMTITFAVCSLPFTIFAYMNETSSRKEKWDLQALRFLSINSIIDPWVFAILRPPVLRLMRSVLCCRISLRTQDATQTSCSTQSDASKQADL
Sequence of human EP4 receptor (P35408 whole entry): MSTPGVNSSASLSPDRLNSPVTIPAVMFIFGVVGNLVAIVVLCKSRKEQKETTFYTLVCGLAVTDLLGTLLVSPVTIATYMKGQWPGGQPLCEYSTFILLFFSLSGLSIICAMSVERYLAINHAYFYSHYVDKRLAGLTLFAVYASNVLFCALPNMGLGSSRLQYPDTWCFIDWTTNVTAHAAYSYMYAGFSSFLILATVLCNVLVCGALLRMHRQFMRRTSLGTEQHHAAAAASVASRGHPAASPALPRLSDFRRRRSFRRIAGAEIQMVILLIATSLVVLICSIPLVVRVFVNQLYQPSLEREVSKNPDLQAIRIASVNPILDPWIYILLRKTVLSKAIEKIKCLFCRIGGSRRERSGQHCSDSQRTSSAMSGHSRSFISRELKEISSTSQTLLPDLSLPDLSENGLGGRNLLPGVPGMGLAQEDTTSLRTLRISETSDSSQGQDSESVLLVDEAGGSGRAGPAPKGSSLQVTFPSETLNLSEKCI

On to `O=C(O)c1ccc(CCN2C(=O)SCCN2CC[C@@H](O)Cc2cccc(C#Cc3ccsc3)c2)s1` [Example 23, (S)-5-(2-(4-(3-Hydroxy-4-(3-(thiophen-3-ylethynyl)phenyl)butyl)-2-oxo-1,3,4-thiadiazinan-3-yl)ethyl)thiophene-2-carboxylic acid], for which the figures for the IC50 in assay [1], in assay [2] and in assay [5] were more than 1000 nM, more than 1000 nM and 4.35 nM, respectively. Besides, the “Bone mineral content of femur 1/3 center region (mg) Left femur (administered with compound)” value in assay [3] (100 μg test compound in in situ-solidified gel solution injected between quadriceps and periosteum) turned out to be 82.7 ± 6.7 mg. The “Bone mineral content of femur 1/3 center region (mg) Right femur (no administration of compound)” value in assay [3] (contralateral femur, 100 μg test compound given at left femur) came out at 58.9 ± 2.9 mg. Further, the “Bone mineral content of femur 1/3 center region (g) Left femur (no administration of compound)” value was found to be 2.9 ± 0.4 g in assay [4] (microspheres containing compound of Example 23, 0.01 μg/site at right femur); 2.6 ± 0.1 g in assay [4] (microspheres containing compound of Example 23, 0.1 μg/site at right femur); 3.0 ± 0.1 g in assay [4] (microspheres containing compound of Example 23, 1.0 μg/site at right femur); 2.8 ± 0.3 g in assay [4] (microspheres containing compound of Example 23, 10 μg/site at right femur); 2.7 ± 0.4 g in assay [4] (microspheres containing compound of Example 23, 100 μg/site at right femur). Further, the “Bone mineral content of femur 1/3 center region (g) Right femur (administered with compound)” value in assay [4] (microspheres containing compound of Example 23, 0.01 μg/site) stood at 2.9 ± 0.4 g; in assay [4] (microspheres containing compound of Example 23, 0.1 μg/site), 2.7 ± 0.2 g; in assay [4] (microspheres containing compound of Example 23, 1.0 μg/site), 4.1 ± 0.4 g; in assay [4] (microspheres containing compound of Example 23, 10 μg/site), 6.4 ± 0.7 g; in assay [4] (microspheres containing compound of Example 23, 100 μg/site) it was 8.2 ± 1.1 g.
